Results reported in paper PMC3404106, “Pharmacology of DB844, an Orally Active aza Analogue of Pafuramidine, in a Monkey Model of Second Stage Human African Trypanosomiasis” (PLoS Neglected Tropical Diseases, 2012).
Entries after “also recorded” stand apart in the source; their conditions may differ.

Assay: Safety monitoring (clinical, haematology, clinical chemistry) in infected DB844-treated monkeys
Format: in vivo, vervet monkey
Settings: for RBC / Haematocrit / Hemoglobin / Mean corpuscular haemoglobin / Mean corpuscular volume / Platelet counts / WBC counts: infected monkeys
Procedure: Haematology samples (1 ml) were analysed using an AC^3diffT Coulter Counter (Miami, Florida, USA). Clinical chemistries were determined using a Humalyzer analyser system. Finally, plasma and CSF were analyzed for drug and metabolite concentrations using an HPLC-tandem Mass Spectrometry (HPLC-MS/MS) procedure as described below.

[1] = infected monkeys after oral DB844 treatment, days post last dose
[2] = DB844 6 mg/kg×14 days, 41 DPI (0 days post last dose)
[3] = DB844 6 mg/kg×14 days, 48 DPI (7 days post last dose)
[4] = DB844 6 mg/kg×14 days, 69 DPI (28 days post last dose)
[5] = DB844 6 mg/kg×14 days, 104 DPI (63 days post last dose)

In the case of `CONC(=N)c1ccc(-c2ccc(-c3ccc(C(=N)NOC)cn3)o2)cc1` [DB844, N-methoxy-6-{5-[4-(N-methoxyamidino)phenyl]-furan-2-yl}-nicotinamidine], the “mean plasma ALT at its peak” value (group II, 6 mg/kg, after 7 daily drug doses (34 DPI), baseline 4.5±0.9 IU) is reported as 13.6±3.8 IU, the “alkaline phosphatase change during and after drug administration” value (group II, 6 mg/kg×14 days) is reported as “no significant changes” and the “plasma creatinine change from baseline” value (group II, 6 mg/kg×14 days) is reported as “not significant”. For the same molecule, the “total bilirubin and direct bilirubin changes” value (group II, 6 mg/kg×14 days) was “none of the changes were statistically significant”, the “increase of mean plasma AST above baseline” value (group II, 6 mg/kg×14 days, 24 hours post dosing) was 3.3 times and the “mean (± SE) plasma AST” value (group II, 6 mg/kg×14 days, 24 hours post dosing, baseline 37.0±4.8 IU) was 121±21.6 IU. The “blood urea nitrogen (BUN) as indicator of renal function” value (group II, 6 mg/kg×14 days, from 48 h post dosing (43 DPI)) was “mild and reversible decrease in kidney function”, the “increases in plasma transaminases (AST and ALT)” value (group II, efficacy study) was 2–3 fold and the “time to reversal of transaminase elevations after the last drug dose” value (group II, efficacy study) was 4 to 7 days. For the same molecule, the “time to re-establishment of baseline RBC associated parameters” value [1] was 28 to 63 days, the “time to re-establishment of baseline platelet parameters” value [1] was “within seven” and the “drug related haematology changes” value (infected monkeys treated with oral DB844 (5 and 6 mg/kg)) was “no drug related haematology changes; also recorded: No DB844-related haematological aberrations”. The RBC (DB844 6 mg/kg×14 days (28–41 DPI), 41 DPI (0 days post last dose)) was 4.8±0.3, p<0.0001 ×10^6/µl, the Haematocrit [2] was 31.6±1.6, p<0.0001% and the Hemoglobin [2] was 11.2±0.7, p<0.0001 g/dl. The Mean corpuscular haemoglobin [2] was 23.0±0.3 p<0.008 g/dl, the Mean corpuscular volume [2] was 65.3±0.9, p = 0.0001 fl and the Platelet counts [2] was 406.5±22.5 p = 0.05 ×10^3/µl. The WBC counts [2] was 7.1±1.0, p = 0.12 ×10^3/µl, the Haematocrit [3] was 31.8±1.6, p<0.0001% and the Hemoglobin [3] was 11.5±0.6, p<0.0001 g/dl. The Mean corpuscular haemoglobin [3] was 23.3±0.4 p = 0.07 g/dl, the Mean corpuscular volume [3] was 64.8±0.9, p = 0.0001 fl and the Platelet counts [3] was 390.7±32.4, p = 0.11 ×10^3/µl. The RBC [3] was 4.9±0.2, p<0.004 ×10^6/µl, the WBC counts [3] was 5.6±1.2, p = 0.9 ×10^3/µl and the Haematocrit [4] was 43.8±1.6, p = 0.91%. The Hemoglobin [4] was 12.8±0.5, p = 0.15 g/dl, the Mean corpuscular haemoglobin [4] was 23.4±0.6, p = 0.13 g/dl and the Mean corpuscular volume [4] was 79.8±1.4, p = 0.11 fl. The Platelet counts [4] was 332.2±11.9, p = 0.78 ×10^3/µl, the RBC [4] was 5.5±0.2, p = 0.55 ×10^6/µl and the WBC counts [4] was 5.9±0.8, p = 0.8 ×10^3/µl. The Haematocrit [5] was 46.7±2.7, p = 0.91%, the Hemoglobin [5] was 14.1±0.8, p = 0.11 g/dl and the Mean corpuscular haemoglobin [5] was 23.3±0.5 p = 0.21 g/dl. The Mean corpuscular volume [5] was 77.0±1.5, p = 0.21 fl, the Platelet counts [5] was 294.3±17.4 p = 0.55 ×10^3/µl and the RBC [5] was 6.1±0.3 p = 0.02 ×10^6/µl. For the same molecule, the WBC counts [5] was 5.1±0.1, p = 0.4 ×10^3/µl.
